From patent publication US9371295B2, “Compounds for use in the treatment of disorders that are ameliorated by inhibition of HDAC” (IRBM—Science Park S.p.A., priority 2012, dated 2016)
pEC50, pIC50: −log10 of the molar value.

Columns and labels:
[1] = tested on: K562 cells; assay: Erythroid differentiation of K562 cells by benzidine staining; type: cell-based, human; details: optimized concentration, mean ± SD of six experiments
Protocol: The biological activity of the compounds of the present application was evaluated by examining the capacity to modulate the expression of γ-globin genes in the human K562 cell line, which is capable of differentiating in the erythroid manner by expressing genes for γ-globin if treated with modifiers of the biological response that are suitable for the purpose (Bianchi et al, J. Haematol., 113, 4, p. 951-961, 2001). The human K562 cells were cultured in RPMI 1640 medium (Sigma, St Louis, Mo., USA) supplemented with 10% foetal bovine serum (FBS; Analitical de Mori, Milan, Italy), 100 units/mL penicillin and 100 μg/mL streptomycin. Cell growth was determined according to cell number/ml, using a cell counter (Coulter Electronics, Hialeah, Fla., USA). For experiments, K562 cell cultures were initiated at 3×10^4/mL and the chemical inducers at the indicated concentrations added. Following 3-5 days incubation without a medium change erythroid differentiation was determined by staining the cells in a solution containing 0.2% benzidine in 0.5 M glacial acetic acid, 10% H2O2. Benzidine positivity indicates the presence of intracellular Hb.
The erythroid differentiation of K562 cells was investigated following treatment with selected compounds of the invention. The effect on cell proliferation was first determined for all tested molecules by culture of K562 cells in the presence of increasing concentration of the compounds. The cell number per sample was then determined after 3, 4 and 5 days. The IC50 values reported in Table 3 for the antiproliferative effect were calculated from the concentration of the compounds necessary to decrease the cell number to 50% of the values obtained in control untreated K562 cell cultures, after a 5 days culture period. Erythroid differentiation was measured by benzidine staining after 5, 6 and 7 days of cell culture and by quantitative reverse transcriptase polymerase-chain reaction (RT-qPCR) to quantify the expression of γ-globin mRNA. Different concentrations of tested compounds were employed because of their differing antiproliferative effects; accordingly, concentrations were chosen to maximize the erythroid induction effect without extensive reduction of cell viability. In Table 3 the % of benzidine positive cells and the increase in γ-globin mRNA assayed by RT-qPCR after 6 days of culture period are reported.
Table 4 reports induction of erythroid differentiation in K562 cells treated with an optimized concentration of the compound 2 in comparison with known inducers. Compound 2 is able to stimulate an increase of the proportion of benzidine-positive (hemoglobin producing) K562 cells. This is associated with an increase of the expression of γ-globin mRNA.

[2] = tested on: human γ-globin promoter (EGFP reporter) in K562 cells; assay: HbF activation assay on K562 (EGFP/RFP reporter model system for screening of inducers of fetal hemoglobin); type: cell-based; details: 60 hours
Method in brief: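 K562 cells stably carrying EGFP under the human γ-globin promoter and far-red FP under the β-globin promoter, with the LCR, were seeded at 1000 cells/well. Cells were exposed to compounds (0.25% DMSO final) for 60 h at 37 °C. Fluorescence was read by plate cytometry, normalized to Hoechst nuclei count, which also indicated proliferation or death.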

[3] = target: T1, HDAC1 (Homo sapiens, UniProt Q13547); assay: HDAC1 assay (Fluor-de-Lys fluorescent deacetylase assay); type: biochemical; details: read-out: hHDAC IC50
T1 construct: made in house
Method in brief: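 Serially diluted compounds were pre-incubated with purified FLAG-tagged HDAC1 (1-2 nM final; from transfected HeLa cells) or HeLa nuclear extract, then given the Fluor-de-Lys acetyl-lysine substrate/developer; deacetylation read as fluorescence. Reactions were stopped with TSA (3 uM final).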

[4] = Rat PK studies, oral dose; type: in vivo, Sprague-Dawley rats; details: male, Sprague-Dawley, plasma, po 10 mg/kg
Protocol: Rats Male Sprague-Dawley rats (250-350 g) were used for the absorption disposition studies. In each rat an indwelling cannula was implanted in the right jugular vein for blood sampling. The surgery was performed under light anaesthesia (Ketamine-Xilazine (85 mg/kg and 2.5 mg/kg respectively i.m.) one day prior the experiment). During the kinetic study, all animals were housed individually in plastic metabolism cages, and were unrestrained throughout the experiment. Compounds (6 mg/mL) were dissolved in 20% DMSO/60% PEG400/20% water for intravenous administration, and dissolved or suspended in 1% methylcellulose for oral administration (2 mg/ml). After an overnight fast, the rats received an i.v. (via caudal vein) or an oral dose of the compound. Blood samples were collected at different times point after dosing. Plasma was separated immediately after blood sampling by centrifugation, and the plasma samples were kept frozen (−20° C.) until assayed by LC/MS/MS.
Analytical procedures: Plasma samples were extracted using Liquid Handling Robot MultiProbe Packard by protein precipitation with acetonitrile. Then the samples were centrifuged (3000 rpm×15 min at 4° C.) and the supernatant transferred and dried under nitrogen. The samples were reconstituted in water/acetonitrile 90/10 and then injected directly into an HPLC column. Sample analyses were performed using a an API 3000 or/and API 2000 or/and API 4000 Mass Spectrometer interfaced via the Turbo Ion Spray (ESI)/APCI to an LC system consisting of an HTS PAL CTC autosampler and an Agilen HP 1100 Binary Pump. The results are calculated using Analyst Software linear regression with 1/x*x weighting. The Assay Precision was calculated for the Quality Controls by Watson Lims database.
Pharmacokinetic Analysis: The plasma clearance (CLp) of the compounds were calculated (using Watson PK program) as the dose divided by the area under the plasma concentration-time curve from time zero to infinity (AUC0-∞). The apparent half-life was estimated from the slope of the terminal phase of the log plasma concentration-time data. The volume of distribution (Vdss) was determined using the following noncompartmental method: Vdss=(Dose IV×AUMC)/(AUC0-∞)2
where AUMC is the total area under the first moment of the drug concentration time curve from time zero to infinity. Bioavailability was estimated as the AUC0-∞ ratio following oral and intravenous administration, normalized for differences in dose.

[5] = tested on: HDAC in Hela cells; assay: HDAC Hela Cell Based assay
[6] = Intrinsic clearance in pooled mouse liver microsomes; type: in vitro ADME; details: pH 7.4
[7] = Mouse in vivo pharmacokinetics, oral dose; details: plasma
Protocol: Compounds of the invention were evaluated in in vitro and in vivo pharmacokinetic studies.

[8] = Intrinsic clearance in pooled rat liver microsomes; type: in vitro ADME; details: pH 7.4
Protocol: Assays were performed in presence of 0.5 mg/ml of microsomal protein, with a NADPH-generating system (1 mM NADP, 2.5 mM glucose 6-phosphate and 2 U/ml glucose 6-phosphate dehydrogenase) in 100 mM potassium phosphate buffer containing 3.3 mM MgCl2 (pH 7.4). Tested compounds were stored in 10 mM DMSO solution and incubated at 1 μM final concentration (final DMSO concentration in incubation less than 0.1%). Microsomes and substrates were preincubated at 37° C. for 5 min and then the enzymatic reactions were initiated by the addition of cofactors and incubated at 37° C. for up to 90 min. Incubations were terminated by the addition of an equivalent volume of cold acetonitrile containing I.S. Control incubations, where the substrate was incubated in the same buffer system containing pRLM without the NADPH-generating system, were also run.

[9] = Intrinsic clearance in pooled human liver microsomes; type: in vitro ADME; details: pH 7.4
[10] = tested on: human γ-globin gene; details: transgenic mice; Cao, H Exp. Hematol. 2005; cited from earlier work

T1 sequence (Q13547 whole entry): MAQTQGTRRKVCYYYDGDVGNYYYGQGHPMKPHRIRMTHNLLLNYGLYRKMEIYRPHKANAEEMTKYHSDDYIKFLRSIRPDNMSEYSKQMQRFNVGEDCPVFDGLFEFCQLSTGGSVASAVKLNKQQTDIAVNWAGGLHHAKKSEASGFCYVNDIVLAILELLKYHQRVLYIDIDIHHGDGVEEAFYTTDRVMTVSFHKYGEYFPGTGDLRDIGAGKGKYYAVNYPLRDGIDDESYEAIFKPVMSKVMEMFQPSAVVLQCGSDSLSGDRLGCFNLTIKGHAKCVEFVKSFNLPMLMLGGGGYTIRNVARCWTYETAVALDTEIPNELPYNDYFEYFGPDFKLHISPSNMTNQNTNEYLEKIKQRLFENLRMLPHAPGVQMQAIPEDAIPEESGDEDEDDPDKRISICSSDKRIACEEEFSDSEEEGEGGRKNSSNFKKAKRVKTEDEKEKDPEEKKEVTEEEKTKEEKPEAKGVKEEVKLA

| pEC50 [2] | pIC50 [3] | pIC50 [5] | SMILES | Benzidine positive cells (%) [1] | also measured |
| --- | --- | --- | --- | --- | --- |
| – | – | – | O=c1ccc2ccc3occc3c2o1 [Angelicin, reference compound] | 62 ± 8.5% | – |
| – | – | – | CCCC(=O)O [Butyric acid, reference compound] | 32 ± 6.4% | – |
| – | – | – | N.N.[Cl][Pt][Cl] [Cisplatin, reference compound] | 63 ± 8.5% | – |
| < 6.00 | > 7.00 | 6.00 to 7.00 | CCC(=O)CCCCC[C@@H](NC(=O)C1CN(C)C1)c1ncc(-c2cc3ccccc3nc2OC)o1 [Compound 42, (R)-N-(1-(5-(2-methoxyquinolin-3-yl)oxazol-2-yl)-7-oxononyl)-1-methylazetidine-3-carboxamide] | – | microsomal CLint at 1 μM [6]: 15 µL/min/mg; AUC ([7]; po 5 mg/kg): 5.93 µM·h; Cmax ([7]; po 5 mg/kg): 670 nM; microsomal CLint at 1 μM [8]: 21 µL/min/mg; microsomal CLint at 1 μM [9]: 3 µL/min/mg |
| 6.00 to 7.00 | > 7.00 | > 7.00 | CCC(=O)CCCCC[C@H](NC(=O)C1CN(C)C1)c1ncc(-c2cc3ccccc3[nH]c2=O)o1 [Compound 44, (S)-1-methyl-N-(7-oxo-1-(5-(2-oxo-1,2-dihydroquinolin-3-yl)oxazol-2-yl)nonyl)azetidine-3-carboxamide] | – | microsomal CLint at 1 μM [6]: 11 µL/min/mg; microsomal CLint at 1 μM [8]: 17 µL/min/mg; microsomal CLint at 1 μM [9]: 11 µL/min/mg |
| < 6.00 | > 7.00 | 6.00 to 7.00 | CCC(=O)CCCCC[C@H](NC(=O)C1CN(C)C1)c1nnc(-c2cc3ccccc3nc2OC)o1 [Compound 52, (S)-N-(1-(5-(2-methoxyquinolin-3-yl)-1,3,4-oxadiazol-2-yl)-7-oxononyl)-1-methylazetidine-3-carboxamide] | – | microsomal CLint at 1 μM [6]: 19 µL/min/mg; AUC [4]: 5.91 µM·h; Cmax [4]: 580 nM; AUC ([7]; po 10 mg/kg): 1.75 µM·h; Cmax ([7]; po 10 mg/kg): 630 nM; microsomal CLint at 1 μM [8]: 30 µL/min/mg; microsomal CLint at 1 μM [9]: 60 µL/min/mg |
| < 6.00 | 6.00 to 7.00 | 6.00 to 7.00 | CCC(=O)CCCCC[C@H](NC(=O)c1csc(CN(C)C)n1)c1ncc(-c2cc3ccccc3nc2OC)o1 [Compound 103, (S)-2-((dimethylamino)methyl)-N-(1-(5-(2-methoxyquinolin-3-yl)oxazol-2-yl)-7-oxononyl)thiazole-4-carboxamide] | – | – |
| 6.00 to 7.00 | > 7.00 | > 7.00 | CCC(=O)CCCCC[C@H](NC(=O)C1CCCN(C)C1)c1ncc(-c2cc3ccccc3nc2OC)o1 (stereo partly drawn) [Compound 104, N-((S)-1-(5-(2-methoxyquinolin-3-yl)oxazol-2-yl)-7-oxononyl)-1-methylpiperidine-3-carboxamide] | – | – |
| 6.00 to 7.00 | > 7.00 | > 7.00 | CCC(=O)CCCCC[C@H](NC(=O)C1(N(C)C)CCCC1)c1ncc(-c2cc3ccccc3nc2OC)o1 [Compound 105, (S)-1-(dimethylamino)-N-(1-(5-(2-methoxyquinolin-3-yl)oxazol-2-yl)-7-oxononyl)cyclopentanecarboxamide] | – | – |
| 6.00 to 7.00 | > 7.00 | > 7.00 | CCC(=O)CCCCC[C@H](NC(=O)CC1CN(C)C1)c1ncc(-c2cc3ccccc3nc2OC)o1 [Compound 108, (S)-N-(1-(5-(2-methoxyquinolin-3-yl)oxazol-2-yl)-7-oxononyl)-2-(1-methylazetidin-3-yl)acetamide] | – | – |
| – | – | – | Nc1ccn([C@@H]2O[C@H](CO)[C@@H](O)[C@@H]2O)c(=O)n1 [Cytosin arabinoside, reference compound] | 75 ± 5.4% | – |
| – | – | – | NC(=O)NO [Hydroxyurea, reference compound] | 30 ± 7.5% | – |
| – | – | – | Oc1ccc(C=Cc2cc(O)cc(O)c2)cc1 [Resveratrol, reference compound] | 70 ± 8.5% | – |
| – | – | – | CCCC(=O)NO [butyryl hydroxamate] | – | increase of human γ/murine α-globin mRNA ratios [10]: 33.9% |
| – | – | – | CCC(=O)NO [propionyl hydroxamate] | – | increase of human γ/murine α-globin mRNA ratios [10]: 71% |

| SMILES | pEC50 [2] | pIC50 [3] | pIC50 [5] | Benzidine positive cells (%) [1] | also measured |
| --- | --- | --- | --- | --- | --- |
| CCC(=O)CCCCC[C@H](NC(=O)C12CCN(CC1)CC2)c1ncc(-c2cc3ccccc3nc2OC)o1 [Compound 41, (S)-N-(1-(5-(2-methoxyquinolin-3-yl)oxazol-2-yl)-7-oxononyl)quinuclidine-4-carboxamide] | < 6.00 | > 7.00 | > 7.00 | – | AUC [4]: 10.1 µM·h; Cmax [4]: 470 nM |
